Reference: BindingDB's records for PubMed 26804741 (Helmholtz Institute For Pharmaceutical Research Saarland …, 2016)

experiment: Inhibition of Pseudomonas aeruginosa LecB

IC50 [µM]	Structure (SMILES)
100	CO[C@H]1O[C@H]([C@@H](O)CNS(=O)(=O)c2c(C)cc(C)cc2C)[C@@H](O)[C@H](O)[C@@H]1O
0.14	CC[C@H](C)[C@H](NC(=O)[C@H](Cc1cnc[nH]1)NCCCC[C@H](NC(=O)[C@@H](NC(=O)[C@H](CCCCN)NC(=O)[C@H](Cc1ccccc1)NC(=O)[C@H](CCCCNC(=O)[C@H](CC(C)C)NC(=O)[C@@H]1CCCN1C(=O)[C@@H](N)CCCCNC(=O)C[C@@H]1O[C@@H](C)[C@@H](O)[C@@H](O)[C@@H]1O)NC(=O)[C@H](CC(C)C)NC(=O)[C@@H]1CCCN1C(=O)[C@@H](N)CCCCNC(=O)C[C@@H]1O[C@@H](C)[C@@H](O)[C@@H](O)[C@@H]1O)[C@@H](C)CC)C(=O)N[C@H](C(=O)N[C@@H](CCCCN)C(=O)N[C@@H](Cc1ccccc1)C(=O)N[C@@H](CCCCN[C@@H](CC(C)C)C(=O)N1CCC[C@H]1C(=O)N[C@@H](CCCCNC(=O)C[C@@H]1O[C@@H](C)[C@@H](C)[C@@H](C)[C@@H]1O)C(=O)O)C(=O)N[C@@H](CC(C)C)C(=O)N1CCC[C@H]1C(=O)N[C@@H](CCCCNC(=O)C[C@@H]1O[C@@H](C)[C@@H](O)[C@@H](O)[C@@H]1O)C(=O)O)[C@@H](C)CC)C(N)=O
8	CCCCCCCCO[C@@H]1O[C@H](CO)[C@H](O[C@@H]2O[C@H](CO)[C@H](O)[C@H](O)[C@H]2NC(C)=O)[C@H](O)[C@H]1OCCC
